# ChEMBL document CHEMBL5244273, “Tuberculosis: An Overview of the Immunogenic Response, Disease Progression, and Medicinal Chemistry Efforts in the Last Decade toward the Development of Potential Drugs for Extensively Drug-Resistant Tuberculosis Strains” (J Med Chem, 2021)
# Key:
# [1] = test system: Mycobacterium tuberculosis; experiment: Antitubercular activity against Mycobacterium tuberculosis H37Rv assessed as inhibition of bacterial growth by alamar blue assay; assay type: functional
# [2] = test system: Mycobacterium tuberculosis; experiment: Antimycobacterial activity against Mycobacterium tuberculosis H37Rv incubated for 4 weeks; assay type: functional; details: 672 h
# [3] = test system: Mycobacterium tuberculosis; experiment: Antimycobacterial activity against Mycobacterium tuberculosis H37Rv incubated for 5 weeks; assay type: functional; details: 840 h
# [4] = test system: Mycobacterium tuberculosis; experiment: Antimycobacterial activity against Mycobacterium tuberculosis H37Rv incubated for 2 weeks; assay type: functional; details: 336 h
# [5] = test system: Mycobacterium tuberculosis; experiment: Antimycobacterial activity against Mycobacterium tuberculosis H37Rv incubated for 3 weeks; assay type: functional; details: 504 h
# [6] = test system: Mycobacterium tuberculosis; experiment: Potentiation of ethionamide induced antibacterial activity against Mycobacterium tuberculosis H37Rv expressing GFP incubated for 5 days by fluorescence based analysis; assay type: functional, organism-based; details: 120 h
# [7] = test system: Mycobacterium tuberculosis; experiment: Antimycobacterial activity against Mycobacterium tuberculosis H37Rv infected in human THP-1 cells assessed as inhibition of bacterial growth; assay type: functional, organism-based
# [8] = test system: Mycobacterium tuberculosis; experiment: Antimycobacterial activity against Mycobacterium tuberculosis H37Rv assessed as inhibition of bacterial growth incubated for 5 days by alamar blue assay; assay type: functional; details: 120 h, time 5 day
compound,measurement,setting,value
O=C(NNC(=O)c1ccc([N+](=O)[O-])cc1)c1ccncc1,MIC,[1],25 µg/mL
Cc1ccccc1C(=O)NNC(=O)c1ccncc1,MIC,[1],25 µg/mL
O=C(NNS(=O)(=O)c1ccccc1)c1ccncc1,MIC,[1],50 µg/mL
Cc1ccc(S(=O)(=O)NNC(=O)c2ccncc2)cc1,MIC,[1],25 µg/mL
O=C(Cc1ccccc1F)NNC(=O)c1ccncc1,MIC,[1],6.25 µg/mL
O=C(NNC(=O)c1ccc(Cl)c(Cl)c1)c1ccncc1,MIC,[1],12.5 µg/mL
O=C(NNC(=O)c1ccc(Cl)cc1)c1ccncc1,MIC,[1],25 µg/mL
O=C(NNC(=O)c1ccncc1)c1ccncc1,MIC,[1],12.5 µg/mL
CCCCCCCCCCCCCCCCCC(=O)NNC(=O)c1ccncc1,MIC,[1],50 µg/mL
COc1ccc(/C=C/C(=O)NNC(=O)c2ccncc2)cc1,MIC,[1],12.5 µg/mL
O=C(/C=C/c1ccccc1)NNC(=O)c1ccncc1,MIC,[1],50 µg/mL
CC(C)(C)n1cc(C(=O)O)c(=O)c2cc(F)c(-c3ccc(F)cc3F)cc21,MIC,[2],8 µg/mL
same,MIC,[3],8 µg/mL
same,MIC,[4],4 µg/mL
same,MIC,[5],8 µg/mL
CC(C)(C)n1cc(C(=O)O)c(=O)c2cc(F)c(Sc3ccccc3)cc21,MIC,[2],16 µg/mL
same,MIC,[3],16 µg/mL
same,MIC,[4],8 µg/mL
same,MIC,[5],16 µg/mL
O=C(CCC(F)(F)F)N1CCC(F)(c2ccnc(Cl)c2)CC1,EC50,[6],< 150 nM
same,IC50,[7],10 nM
COc1ccc(NC(=O)c2c(Nc3cccc(C)c3C)nn3c(O)cc(C)nc23)cc1,MIC,[8],50 µg/mL
CCOc1ccc(NC(=O)c2c(Nc3ccccc3)nn3c(O)cc(C)nc23)cc1,MIC,[8],50 µg/mL
Cc1cc(O)n2nc(Nc3ccc(F)cc3)c(C(=O)Nc3cccc(Cl)c3)c2n1,MIC,[8],12.5 µg/mL
Cc1ccc(NC(=O)c2c(Nc3ccccc3)nn3c(O)cc(C)nc23)cc1,MIC,[8],50 µg/mL
Cc1cc(O)n2nc(Nc3cccc(C)c3C)c(C(=O)Nc3cccc(Cl)c3)c2n1,MIC,[8],50 µg/mL
Cc1ccc(Nc2nn3c(O)cc(C)nc3c2C(=O)Nc2ccc(F)cc2)c(C)c1,MIC,[8],50 µg/mL
O=C(CCC(F)(F)F)N1CC(C2CCCCC2)C1,EC50,[6],< 10 nM
same,IC50,[7],10 nM
CC(C)(C)n1cc(C(=O)O)c(=O)c2cc(F)c(-c3ccc(Cl)cc3)cc21,MIC,[2],1 µg/mL
same,MIC,[3],1 µg/mL
same,MIC,[4],1 µg/mL
same,MIC,[5],1 µg/mL
O=C(CCC(F)(F)F)N1CCC(F)(c2ccnc(F)c2)CC1,EC50,[6],< 150 nM
same,IC50,[7],10 nM
CCN1CCN(c2nn3c(O)cc(C)nc3c2C(=O)Nc2cccc(Cl)c2Cl)CC1,MIC,[8],50 µg/mL
O=C(NNC(=O)c1cc(O)ccc1O)c1ccncc1,MIC,[1],50 µg/mL
O=C(CCC(F)(F)F)N1CCC(F)(c2cncc(Cl)c2)CC1,EC50,[6],< 150 nM
same,IC50,[7],10 nM
C=CC(=O)NNC(=O)c1ccncc1,MIC,[1],50 µg/mL
O=C(CCC(F)(F)F)N1CC(c2cccc(Cl)c2)C1,EC50,[6],< 10 nM
same,IC50,[7],10 nM
O=C(CCC(F)(F)F)N1CCC(F)(c2cncc(C(F)(F)F)c2)CC1,EC50,[6],< 150 nM
same,IC50,[7],10 nM
Cc1cccc(C(=O)NNC(=O)c2ccncc2)c1,MIC,[1],12.5 µg/mL
O=C(NNC(=O)c1ccco1)c1ccncc1,MIC,[1],12.5 µg/mL
O=C(/C=C/c1ccc(Cl)cc1)NNC(=O)c1ccncc1,MIC,[1],12.5 µg/mL
O=C(CCC(F)(F)F)N1CCC(F)(c2cc(C(F)(F)F)ccn2)CC1,EC50,[6],< 150 nM
same,IC50,[7],10 nM
COc1ccc(C(=O)NNC(=O)c2ccncc2)cc1OC,MIC,[1],50 µg/mL
CC(C)(C)n1cc(C(=O)O)c(=O)c2cc(F)c(-c3ccccc3)cc21,MIC,[2],2 µg/mL
same,MIC,[3],2 µg/mL
same,MIC,[4],1 µg/mL
same,MIC,[5],2 µg/mL
O=C(CCC(F)(F)F)N1CCC(c2ccnc(Cl)c2)CC1,EC50,[6],< 150 nM
same,IC50,[7],10 nM
CC(Br)C(=O)NNC(=O)c1ccncc1 (configuration not stated),MIC,[1],50 µg/mL
COc1ccc(Nc2nn3c(O)cc(C)nc3c2C(=O)Nc2ccc(F)c(Cl)c2)cc1,MIC,[8],25 µg/mL
O=C(Cc1cccc(Br)c1)NNC(=O)c1ccncc1,MIC,[1],25 µg/mL
O=C(CCCC(F)(F)F)N1CCC(c2cncc(Cl)c2)CC1,EC50,[6],< 150 nM
same,IC50,[7],10 nM
Nc1ccc(O)c(C(=O)NNC(=O)c2ccncc2)c1,MIC,[1],50 µg/mL
O=C(NNC(=O)C1CCNC(Br)C1)c1ccncc1 (configuration not stated),MIC,[1],25 µg/mL
O=C(CCC(F)(F)F)N1CCC(c2cncc(Cl)c2)C1 (configuration not stated),EC50,[6],< 150 nM
same,IC50,[7],10 nM
Cc1cc(O)n2nc(N3CCCC3)c(C(=O)Nc3ccc(Cl)c(Cl)c3)c2n1,MIC,[8],25 µg/mL
O=C(CCC(F)(F)F)N1CCC(F)(c2ccnc(C(F)(F)F)c2)CC1,EC50,[6],< 150 nM
same,IC50,[7],10 nM
Cc1ccc(Nc2nn3c(O)cc(C)nc3c2C(=O)Nc2ccccc2)cc1,MIC,[8],100 µg/mL
Cc1cc(O)n2nc(Nc3ccc(Cl)c(Cl)c3)c(C(=O)Nc3cccc(C)c3C)c2n1,MIC,[8],50 µg/mL
O=C(CCC(F)(F)F)N1CCC(F)(c2ccc(F)nc2)CC1,EC50,[6],< 150 nM
same,IC50,[7],10 nM
O=C(CCC(F)(F)F)N1CCC(c2ccncc2F)CC1,EC50,[6],< 150 nM
same,IC50,[7],10 nM
O=C(/C=C/c1ccco1)NNC(=O)c1ccncc1,MIC,[1],12.5 µg/mL
COc1ccc(NC(=O)c2c(Nc3ccccc3)nn3c(O)cc(C)nc23)cc1,MIC,[8],50 µg/mL
Cc1ccc(Nc2nn3c(O)cc(C)nc3c2C(=O)Nc2ccc(F)c(Cl)c2)cc1,MIC,[8],12.5 µg/mL
O=C(Cc1ccccc1Br)NNC(=O)c1ccncc1,MIC,[1],25 µg/mL
CC(C)(C)n1cc(C(=O)O)c(=O)c2cc(F)c(-c3cccc(Cl)c3)cc21,MIC,[2],2 µg/mL
same,MIC,[3],4 µg/mL
same,MIC,[4],2 µg/mL
same,MIC,[5],2 µg/mL
Cc1ccc(Nc2nn3c(O)cc(C)nc3c2C(=O)Nc2ccc(Cl)cc2)c(C)c1,MIC,[8],50 µg/mL
CC(C)(C)n1cc(C(=O)O)c(=O)c2cc(F)c(-c3ccccc3Cl)cc21,MIC,[2],8 µg/mL
same,MIC,[3],8 µg/mL
same,MIC,[4],8 µg/mL
same,MIC,[5],8 µg/mL
O=C(CCC(F)(F)F)N1CCC(c2cccc(Cl)n2)CC1,EC50,[6],< 150 nM
same,IC50,[7],10 nM
O=C(CCC(F)(F)F)N1CC(c2ccc(F)cc2F)C1,EC50,[6],< 10 nM
same,IC50,[7],10 nM
Cc1cc(O)n2nc(Nc3ccc(Cl)cc3)c(C(=O)Nc3ccccc3)c2n1,MIC,[8],50 µg/mL
COc1ccc(Nc2nn3c(O)cc(C)nc3c2C(=O)Nc2ccc(C)cc2C)cc1,MIC,[8],50 µg/mL
COc1ccc(NC(=O)c2c(NN3CCOCC3)nn3c(O)cc(C)nc23)cc1,MIC,[8],25 µg/mL
Cc1ccccc1-c1cc2c(cc1F)c(=O)c(C(=O)O)cn2C(C)(C)C,MIC,[2],8 µg/mL
same,MIC,[3],16 µg/mL
same,MIC,[4],8 µg/mL
same,MIC,[5],8 µg/mL
O=C(COc1ccccc1)NNC(=O)c1ccncc1,MIC,[1],25 µg/mL
COc1ccc(NC(=O)c2c(Nc3ccc(OC)cc3)nn3c(O)cc(C)nc23)cc1,MIC,[8],12.5 µg/mL
O=C(CCC(F)(F)F)N1CC(c2cc(F)c(F)c(F)c2)C1,EC50,[6],< 10 nM
same,IC50,[7],10 nM
COc1ccc(NC(=O)c2c(Nc3cccc(Cl)c3)nn3c(O)cc(C)nc23)cc1,MIC,[8],12.5 µg/mL
CCOc1ccc(NC(=O)c2c(Nc3ccc(C)cc3C)nn3c(O)cc(C)nc23)cc1,MIC,[8],50 µg/mL
O=C(CCC(F)(F)F)N1CCC(c2cncc(Cl)n2)CC1,EC50,[6],< 150 nM
same,IC50,[7],10 nM
Cc1cc(O)n2nc(Nc3ccccc3)c(C(=O)Nc3ccccc3)c2n1,MIC,[8],50 µg/mL
O=C(Cc1ccccc1Cl)NNC(=O)c1ccncc1,MIC,[1],25 µg/mL
Cc1cc(O)n2nc(Nc3ccc(Cl)cc3)c(C(N)=O)c2n1,MIC,[8],50 µg/mL
O=C(CCC(F)(F)F)N1CCC(F)(c2ccccn2)CC1,EC50,[6],< 150 nM
same,IC50,[7],10 nM
CC(C)(C)n1cc(C(=O)O)c(=O)c2cc(F)c(Oc3ccccc3)cc21,MIC,[2],16 µg/mL
same,MIC,[3],16 µg/mL
same,MIC,[4],8 µg/mL
same,MIC,[5],16 µg/mL
O=C(CCC(F)(F)F)N1CCC(c2cncc(Cl)c2)CC1,EC50,[6],< 150 nM
same,IC50,[7],10 nM
